Assay results as given in publication PMC7260179, “Structural insight into the electron transfer pathway of a self-sufficient P450 monooxygenase” (Nature Communications, 2020).

Tests used:
CYP116B46 [1] = target: T1, CYP116B46 (Tepidiphilus thermophilus, UniProt A0A0K6ITW2); assay: hydroxylation assay, GC-FID of silylated products; assay type: biochemical; details: 0.4 mM substrate, 10 uM enzyme, 1 mM NADP+ with glucose dehydrogenase/glucose recycling, pH 8.0, 30 C, 5 h
T1 construct: gene Ga0061068_103196; full-length, synthetic gene in pET46 Ek/LIC (Ni-NTA purified), expressed in E. coli BL21(DE3); residues 27-779 modelled in crystal

CYP116B46 [2] = target: T1, CYP116B46; assay: X-ray crystal structure; assay type: binding; details: crystals at pH 7.0

T1 sequence (A0A0K6ITW2 entry or part of it): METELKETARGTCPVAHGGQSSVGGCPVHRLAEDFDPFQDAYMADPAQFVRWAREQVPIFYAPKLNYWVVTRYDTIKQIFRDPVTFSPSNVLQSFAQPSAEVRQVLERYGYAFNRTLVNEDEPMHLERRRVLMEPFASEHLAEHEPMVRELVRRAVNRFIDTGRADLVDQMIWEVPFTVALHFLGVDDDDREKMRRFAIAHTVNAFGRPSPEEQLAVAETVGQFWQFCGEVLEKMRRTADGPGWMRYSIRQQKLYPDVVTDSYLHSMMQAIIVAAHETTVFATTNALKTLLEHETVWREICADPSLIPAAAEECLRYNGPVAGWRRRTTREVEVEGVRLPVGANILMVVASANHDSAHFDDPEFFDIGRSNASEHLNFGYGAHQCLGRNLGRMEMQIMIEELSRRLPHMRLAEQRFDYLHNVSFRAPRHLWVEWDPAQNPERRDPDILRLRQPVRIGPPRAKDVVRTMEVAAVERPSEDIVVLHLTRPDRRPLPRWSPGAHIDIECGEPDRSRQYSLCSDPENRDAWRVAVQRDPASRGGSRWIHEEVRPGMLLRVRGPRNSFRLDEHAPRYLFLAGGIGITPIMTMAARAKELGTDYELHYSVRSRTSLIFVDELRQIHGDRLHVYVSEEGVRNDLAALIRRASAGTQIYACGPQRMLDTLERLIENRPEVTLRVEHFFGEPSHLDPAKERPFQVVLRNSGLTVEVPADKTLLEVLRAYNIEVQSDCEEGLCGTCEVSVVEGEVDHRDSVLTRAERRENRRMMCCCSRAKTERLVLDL

CCCCCCCCCC(=O)O [decanoic acid]
hydroxylation assay, GC-FID of silylated products (CYP116B46 [1]): The enzyme activity of CYP116B46 was estimated by decanoic acid hydroxylation assay

[S]1[Fe][S][Fe]1 [[2Fe-2S] cluster]
X-ray crystal structure, 2.13 A (CYP116B46 [2]; ferredoxin domain): binding sites for each of the prosthetic groups, heme, FMN and binuclear Fe-S cluster

Cc1cc2nc3c(=O)[nH]c(=O)nc-3n(C[C@H](O)[C@H](O)[C@H](O)COP(=O)(O)O)c2cc1C [FMN]
X-ray crystal structure, 2.13 A (CYP116B46 [2]; reductase domain, co-purified with the recombinant protein): The FMN bound in the reductase domain was co-purified with the recombinant protein
